Experimental findings from PubChem BioAssay AID280 (DTP/NCI, 2004) are described below.

The experiment has as its system nude mice, LOX melanoma ip, survival T/C. The experiment in a line: NCI In Vivo Anticancer Drug Screen. Data for tumor model Human Amelanotic Melanoma (LOX) (intraperitoneal) in NU/NU BALB/C (nude) mice. The settings on record: endpoint: median survival time, higher = longer survival. The procedure:
The antitumor activity of compounds was measured in mice bearing transplantable tumors. Survival or tumor size were measured and the results are expressed as the measurement made in the treated group (T) divided by the measurement made in the vehicle treated control group (C). The tumor model used in this assay is Human Amelanotic Melanoma (LOX) (intraperitoneal) in NU/NU BALB/C (nude) mice

The mark [1] stands for this setting: dose: 37.5 mg/kg/injection, schedule: Q04DX003 (ip), vehicle: saline with Tween-80.
[2] abbreviates: dose: 150.0 mg/kg/injection, schedule: Q04DX003 (ip), vehicle: saline with Tween-80.
Setting [3] is: dose: 25.0 mg/kg/injection, schedule: Q04DX003 (ip), vehicle: DMSO.

Values joined by “and” are separate entries in the source; they are usually repeats but may differ in a detail not shown here. Identical values can stand only once. Inconclusive results and toxic doses are left out.

Consider `COc1ccc(/C=C\c2cc(OC)c(OC)c(OC)c2)c(O)c1O`, for which the T/C reads like this: (dose: 6.25 mg/kg/injection, schedule: Q04DX003 (ip), vehicle: saline + Tween-80 + alcohol) 97 % of control; (dose: 12.5 mg/kg/injection, schedule: Q04DX003 (ip), vehicle: saline + Tween-80 + alcohol) 110 % of control; (dose: 25.0 mg/kg/injection, schedule: Q04DX003 (ip), vehicle: saline + Tween-80 + alcohol) 124 % of control.

`CCN(CC)CC(C)(C)C(=O)/C=C/c1ccc(/C=C/C(=O)C(C)(C)CN(CC)CC)cc1`: the T/C runs as follows: (dose: 7.5 mg/kg/injection, schedule: Q04DX003 (ip), vehicle: saline) 103 % of control; (dose: 15.0 mg/kg/injection, schedule: Q04DX003 (ip), vehicle: saline) 116 % of control; (dose: 30.0 mg/kg/injection, schedule: Q04DX003 (ip), vehicle: saline) 109 % of control.

Take `N#Cc1c(-c2ccc(F)cc2)c(-c2ccc(F)cc2)nn(CCO)c1=O`: the T/C is 98 % of control (dose: 12.5 mg/kg/injection, schedule: Q04DX003 (ip), vehicle: distilled water + Tween-80); 111 % of control (dose: 25.0 mg/kg/injection, schedule: Q04DX003 (ip), vehicle: distilled water + Tween-80); 115 % of control (dose: 50.0 mg/kg/injection, schedule: Q04DX003 (ip), vehicle: distilled water + Tween-80); 110 % of control (dose: 72.0 mg/kg/injection, schedule: Q04DX003 (ip), vehicle: distilled water + Tween-80); 122 % of control (dose: 100.0 mg/kg/injection, schedule: Q04DX003 (ip), vehicle: distilled water + Tween-80); 124 % of control (dose: 120.0 mg/kg/injection, schedule: Q04DX003 (ip), vehicle: distilled water + Tween-80). In addition, the T/C is 120 % of control (dose: 200.0 mg/kg/injection, schedule: Q04DX003 (ip), vehicle: distilled water + Tween-80); 166 % of control (dose: 333.33 mg/kg/injection, schedule: Q04DX003 (ip), vehicle: distilled water + Tween-80); 212 % of control (dose: 555.55 mg/kg/injection, schedule: Q04DX003 (ip), vehicle: distilled water + Tween-80).

`COc1ccc(C[C@@H]2NC[C@@H](O)[C@@H]2OC(C)=O)cc1`: the T/C is 101 % of control under setting [1]; 101 % of control (dose: 75.0 mg/kg/injection, schedule: Q04DX003 (ip), vehicle: saline with Tween-80); 103 % of control under setting [2]; 101 % of control (dose: 300.0 mg/kg/injection, schedule: Q04DX003 (ip), vehicle: saline with Tween-80).

On to `O=C1C2=C(C(=O)c3ncccc31)C1C=CC2CC1` (stereo not drawn), for which the T/C was 99 % of control under setting [3]; 103 % of control (dose: 50.0 mg/kg/injection, schedule: Q04DX003 (ip), vehicle: DMSO); 99 % of control (dose: 100.0 mg/kg/injection, schedule: Q04DX003 (ip), vehicle: DMSO); 89 % of control (dose: 200.0 mg/kg/injection, schedule: Q04DX003 (ip), vehicle: DMSO).

For the molecule `CCCCCC[Se][Se]CCCCCC`, the T/C is, setting by setting: (dose: 37.5 mg/kg/injection, schedule: Q04DX003 (ip), vehicle: Klucel (hydroxypropylcellulose) (HPC)) 98 % of control; (dose: 75.0 mg/kg/injection, schedule: Q04DX003 (ip), vehicle: Klucel (hydroxypropylcellulose) (HPC)) 96 % of control; (dose: 150.0 mg/kg/injection, schedule: Q04DX003 (ip), vehicle: Klucel (hydroxypropylcellulose) (HPC)) 93 % of control; (dose: 300.0 mg/kg/injection, schedule: Q04DX003 (ip), vehicle: Klucel (hydroxypropylcellulose) (HPC)) 105 % of control.

For `CC(=O)NC(CCc1ccc(Cl)c(Cl)c1)c1cccc(O)c(=O)c1` (stereo not drawn), the T/C is 98 % of control (dose: 86.4 mg/kg/injection, schedule: Q04DX003 (ip), vehicle: Klucel (hydroxypropylcellulose) (HPC)) and 109 % of control (dose: 240.0 mg/kg/injection, schedule: Q04DX003 (ip), vehicle: Klucel (hydroxypropylcellulose) (HPC)).

`CO[C@@]12[C@H](COC(N)=O)C3=C(C(=O)C(C)=C(N)C3=O)N1C[C@@H]1N[C@@H]12`: the T/C (dose: 1.34 mg/kg/injection, schedule: Q04DX003 (ip), vehicle: saline) is 116 % of control; the T/C (dose: 1.34 mg/kg/injection, schedule: Q04DX003 (iv), vehicle: saline) is 119 % of control; the T/C (dose: 2.0 mg/kg/injection, schedule: Q04DX003 (ip), vehicle: saline) was 111 % of control; the T/C (dose: 2.0 mg/kg/injection, schedule: Q04DX003 (iv), vehicle: saline) was 166 % of control; the T/C (dose: 3.0 mg/kg/injection, schedule: Q04DX003 (ip), vehicle: saline) is 272 % of control; the T/C (dose: 3.0 mg/kg/injection, schedule: Q04DX003 (iv), vehicle: saline) is 168 % of control. Besides, the T/C was 116 % of control (dose: 4.5 mg/kg/injection, schedule: Q04DX003 (ip), vehicle: saline) and 150 % of control (dose: 4.5 mg/kg/injection, schedule: Q04DX003 (iv), vehicle: saline).

Take `COc1ccc2c(c1)-c1nn(CCCN(C)C)c3ccc([N+](=O)[O-])c(c13)N2`: the T/C was 116 % of control (dose: 5.8 mg/kg/injection, schedule: Q04HX006 (ip), vehicle: water); 119 % of control (dose: 8.8 mg/kg/injection, schedule: Q04HX006 (ip), vehicle: water); 117 % of control (dose: 13.3 mg/kg/injection, schedule: Q04DX003 (ip), vehicle: water); 123 % of control and 96 % of control (dose: 13.3 mg/kg/injection, schedule: Q04HX006 (ip), vehicle: water); 113 % of control (dose: 19.8 mg/kg/injection, schedule: Q04DX003 (ip), vehicle: water); 123 % of control (dose: 19.8 mg/kg/injection, schedule: Q04HX006 (ip), vehicle: water). The T/C (dose: 21.0 mg/kg/injection, schedule: Q04DX003 (ip), vehicle: water) is 107 % of control; the T/C (dose: 21.6 mg/kg/injection, schedule: Q04DX003 (ip), vehicle: water) is 103 % of control; the T/C (dose: 29.7 mg/kg/injection, schedule: Q04DX003 (ip), vehicle: water) was 114 % of control; the T/C (dose: 29.7 mg/kg/injection, schedule: Q04HX006 (ip), vehicle: water) is 123 % of control; the T/C (dose: 36.0 mg/kg/injection, schedule: Q04DX003 (ip), vehicle: water) was 114 % of control and 93 % of control; the T/C (dose: 44.5 mg/kg/injection, schedule: Q04DX003 (ip), vehicle: water) is 114 % of control and 117 % of control. Moreover, the T/C was 122 % of control (dose: 44.5 mg/kg/injection, schedule: Q04HX006 (ip), vehicle: water); 109 % of control and 114 % of control (dose: 60.0 mg/kg/injection, schedule: Q04DX003 (ip), vehicle: water); 118 % of control (dose: 66.7 mg/kg/injection, schedule: Q04DX003 (ip), vehicle: water).

Regarding `CC1(C)Nc2cc3c(cc2-n2cccc21)oc1ccccc13`, the T/C was 100 % of control (dose: 37.5 mg/kg/injection, schedule: Q04DX003 (ip), vehicle: DMSO); 100 % of control (dose: 75.0 mg/kg/injection, schedule: Q04DX003 (ip), vehicle: DMSO); 117 % of control (dose: 150.0 mg/kg/injection, schedule: Q04DX003 (ip), vehicle: DMSO); 91 % of control (dose: 300.0 mg/kg/injection, schedule: Q04DX003 (ip), vehicle: DMSO).

As to `CCN(CC)CC(=O)O[C@]1(CC)C(=O)OCc2c1cc1n(c2=O)Cc2cc3ccccc3nc2-1`, the T/C (dose: 18.75 mg/kg/injection, schedule: Q04DX003 (ip), vehicle: water) was 239 % of control.

For the molecule `O=C1C2=C(C(=O)c3cnccc31)C1C=CC2CC1` (stereo not drawn), under setting [3], the T/C was 93 % of control.

`CCCCCCn1c(SC)nc(COC(=O)NC)c1COC(=O)NC`: the T/C is 118 % of control (dose: 33.7 mg/kg/injection, schedule: Q04DX003 (ip), vehicle: saline); 97 % of control (dose: 40.1 mg/kg/injection, schedule: Q04DX003 (ip), vehicle: water); 87 % of control (dose: 60.1 mg/kg/injection, schedule: Q04DX003 (ip), vehicle: water); 171 % of control (dose: 67.5 mg/kg/injection, schedule: Q04DX003 (ip), vehicle: saline); 97 % of control (dose: 90.0 mg/kg/injection, schedule: Q04DX003 (ip), vehicle: water); 208 % of control (dose: 135.0 mg/kg/injection, schedule: Q04DX003 (ip), vehicle: saline). Further, the T/C was 86 % of control (dose: 135.0 mg/kg/injection, schedule: Q04DX003 (ip), vehicle: water) and 99 % of control (dose: 202.4 mg/kg/injection, schedule: Q04DX003 (ip), vehicle: water).

Take `CCCCCCNc1nc(NCCCCCC)c2[nH]c(NCCCCCC)nc2n1`: the T/C under setting [1] was 123 % of control and the T/C under setting [2] was 122 % of control.
